In experiment [1] the target is T1, plasma carboxypeptidase B (Homo sapiens, UniProt Q96IY4).
T1 sequence (Q96IY4 115-423): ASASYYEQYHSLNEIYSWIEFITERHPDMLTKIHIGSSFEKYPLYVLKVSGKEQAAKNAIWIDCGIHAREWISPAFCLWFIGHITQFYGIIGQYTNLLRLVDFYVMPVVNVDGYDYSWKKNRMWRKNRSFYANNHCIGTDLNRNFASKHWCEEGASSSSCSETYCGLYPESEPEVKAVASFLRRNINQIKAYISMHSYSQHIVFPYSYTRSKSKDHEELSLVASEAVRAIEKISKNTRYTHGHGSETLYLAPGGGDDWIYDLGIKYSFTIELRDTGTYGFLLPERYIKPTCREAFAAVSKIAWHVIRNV
To be noted: t-PA-induced lysis; cited from earlier work.

The target in experiment [2] is T2, activated plasma carboxypeptidase B (Homo sapiens, UniProt Q96IY4).
T2 sequence (Q96IY4 115-423): T1 sequence (Q96IY4 115-423)
The experiment in a line: Assay for activated plasma carboxypeptidase B activity (hippuryl-Arg hydrolysis, colorimetric). As to conditions: used as positive standard; hippuryl-Arg final 1 mM. Type of experiment: biochemical. Here is the method: The compounds of the invention were tested in an in vitro assay according to the method described in Hendriks et al., “Colorimetric assay for carboxypeptidase N in serum”, Clinica Chimica Acta (1986), Vol. 157, pp. 103-108 and Zhao et al., “Identification and characterization of two thrombin-activatable fibrinolysis inhibitor isoforms”, Thromb. Haemost. (1998), Vol. 80, pp. 949-955.
Activation of Plasma Carboxypeptidase B:
The following reagents were mixed together at a total volume of 200 μL:
The above mixture was incubated for 15 minutes at ambient temperature. The activation process was stopped by the addition of 2 μl of PPACK, D-Phe-Pro-Arg chloromethylketone (100 μM, final 1.0 μM). The mixture was then diluted 1:36 with the activation buffer containing 0.1% BSA. The resulting diluted mixture was kept on ice. […] The resulting sample mixture was incubated for 2 minutes at ambient temperature. To the sample mixture was added 12 μL of 5 mM hippuryl-Arg (final 1 mM (=Km)). The resulting sample mixture was incubated at ambient temperature for 30 minutes. At the end of the reaction, the product, hippuric acid, in the sample mixture was converted to a chromogen by adding the following to the mixture: • 80 μL of 0.2 M sodium phosphate buffer, pH 8.3 • 60 μL of 3% cyanuric chloride in dioxane (w/v). […] Optical density of the samples was measured at 382 nm.

Each structure is given as a SMILES string.

As to `NC(N)=NCCSC(CC(=O)O)C(=O)O` (centres unmarked) [GEMSA, guanidinoethyl-mercaptosuccinic acid], the “effect on the inhibitory effect of plasma carboxypeptidase B on clot lysis” value in experiment [1] was “blocked the inhibitory effect of plasma carboxypeptidase B on clot lysis”. Moreover, in experiment [2], the IC50 – broadly, the concentration at which inhibition is half-maximal – is 35 µM.

These data come from patent US8008325B2, “Plasma carboxypeptidase B inhibitors” (Bayer Schering Pharma AG, priority 2002, dated 2011).
